Assays:
PrPres = PrPres (Mesocricetus auratus, UniProt P04273); conditions: for PrPres bound to resin in five 10 ml columns in series / removal of PrPres: 300 ml RBCC spiked with 0.1% scrapie hamster brain homogenate, Western blot of bead eluates; for Resin needed to remove all PrPres to the limit of detection of the Western blot: 300 ml spiked RBCC, 3 columns of 10 ml
PrPc = PrPc (Mesocricetus auratus, UniProt P04273); conditions: 1% normal hamster brain homogenate, 0.5 ml column
haPrPc and haPrPsc = haPrPc and haPrPsc (Mesocricetus auratus, UniProt P04273); conditions: 3-mer library, hamster brain homogenates
Sequence of haPrPc and haPrPsc (P04273 23-231 limits assumed): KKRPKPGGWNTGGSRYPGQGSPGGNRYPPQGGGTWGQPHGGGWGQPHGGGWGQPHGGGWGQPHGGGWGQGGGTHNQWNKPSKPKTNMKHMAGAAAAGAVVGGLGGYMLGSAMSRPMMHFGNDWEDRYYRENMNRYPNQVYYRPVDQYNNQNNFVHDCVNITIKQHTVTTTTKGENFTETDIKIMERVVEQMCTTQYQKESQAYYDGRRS

Sequence of PrPres (P04273 23-231 limits assumed): as above
Sequence of PrPc (P04273 23-231 limits assumed): as above

Row | Substance | PrPres bound to resin in five 10 ml columns in series / removal of PrPres (PrPres) | Resin needed to remove all PrPres to the limit of detection of the Western blot (PrPres) | Location of bound PrPc on chopped resin beads (PrPc) | Preferential binding of PrPsc over PrPc (haPrPc and haPrPsc)
1 | YVHEA [SEQ ID NO:63] | decreasing amounts of PrPres on columns 1 through 3 |  |  | 
2 | WFVEA [SEQ ID NO:225] | does not bind and remove all of the prion protein to the limit of detection |  |  | 
3 | DVR [SEQ ID NO:114] | remove all of the PrPres to the limit of detection of the Western blot in 3 columns | 30 mL | protein bound to the exterior of the beads | bind preferentially PrPsc over PrPc
4 | SYA [SEQ ID NO:108] | remove all of the PrPres to the limit of detection of the Western blot in 3 columns | 30 mL |  | 
5 | VQR [SEQ ID NO:111] |  |  |  | bind preferentially PrPsc over PrPc
6 | (D)ES(na)PRQ-EACA [SEQ ID NO:226] | decreasing amounts of PrPres on columns 1 through 3 |  |  | 
